# Data as given in ChEMBL document CHEMBL1156829 (Proc Natl Acad Sci U S A, 2008).
# pEC50: −log10 of the molar value.
# Columns and labels:
# Plasmodium falciparum [1] = test: NOVARTIS: Inhibition of Plasmodium falciparum W2 (drug-resistant) proliferation in erythrocyte-based infection assay; assay type: functional, organism-based; details: Plasmodium falciparum, W2; read-out: EC50
# [2] = NOVARTIS: Cytotoxicity against human hepatocellular carcinoma cell line (Huh7); assay type: toxicity, cell-based, Huh-7; details: Huh7 cells (hepatocellular carcinoma cell line)
# Plasmodium falciparum [3] = test: NOVARTIS: Inhibition of Plasmodium falciparum 3D7 (drug-susceptible) proliferation in erythrocyte-based infection assay; assay type: functional, organism-based; details: Plasmodium falciparum, 3D7
Structure (SMILES),pEC50 (Plasmodium falciparum [1]),CC50 [2],pEC50 (Plasmodium falciparum [3])
CCOc1ccc(S(=O)(=O)Oc2cccc3cccnc23)cc1,< 5.92,> 10000 nM,< 5.77
O=C(CSc1oc(-c2ccc(Cl)cc2)nc1[P+](c1ccccc1)(c1ccccc1)c1ccccc1)c1ccccc1,< 5.93,> 10000 nM,6.07
COc1cc(CNCCCn2ccnc2)ccc1OCc1ccccc1,< 5.93,> 10000 nM,< 5.90
CC(=O)N1CCOC1C(C)(C)C/C=C(\C)CCC=C(C)C (configuration not stated),< 5.77,> 14100 nM,6.09
NC(Cc1ccccc1)C(=O)N1CCC(Nc2nsc3ccccc23)C1 (configuration not stated),5.82,12700 nM,5.95
O=C(COc1cccc(Br)c1)NN=Cc1ccccc1F,< 5.92,> 10000 nM,< 5.90
CCCCCN(C(=O)c1ccc(Cl)cc1)C(CC)c1nc2ccccc2c(=O)n1-c1ccccc1OC (configuration not stated),5.98,> 8820 nM,6.06
c1cncc(-c2cc(NCCCN3CCOCC3)nc(-c3ccncc3)n2)c1,5.92,> 10000 nM,5.97
COC(=O)[C@@H]1C[C@@H](NC(=O)c2ccc(OC)cc2OC)CN1CC(c1ccccc1)c1ccccc1,5.92,> 10000 nM,6.23
CC(CCCC(C)(C)O)Nc1cncc(-c2ccc(C(N)=O)cc2)n1 (configuration not stated),< 5.92,> 10000 nM,< 5.90
COc1cc(OC)cc(-n2c(=O)c3sccc3n(CC(=O)c3ccc(F)cc3)c2=O)c1,< 5.93,> 10000 nM,< 5.90
CCCNC(=O)CSc1nc(C)c(Cc2ccccc2)c(=O)n1C,5.93,> 10000 nM,5.89
CCN(CC)S(=O)(=O)c1cc(C(=O)O)ccc1Cl,< 5.93,> 10000 nM,6.19
CN1CCC(N[C@@H]2C[C@@H](C(=O)N3CCN(c4cccc(C(F)(F)F)c4)CC3)N(Cc3ccccc3Cl)C2)CC1,< 5.93,> 10000 nM,< 5.90
O=C(Cc1ccc(F)cc1Cl)N1CCN(c2cccc3c2C(=O)N(Cc2ccccn2)C3=O)CC1,< 5.93,> 10000 nM,< 5.90
CC(C)c1ccc(OCC(=O)NN=Cc2cccc([N+](=O)[O-])c2)cc1,< 5.93,> 10000 nM,< 5.90
O=C(Nc1ccc(Br)cn1)c1ccc(Oc2cc(Oc3cccc(Cl)c3)cc([N+](=O)[O-])c2)cc1,< 5.93,> 10000 nM,< 5.90
CCOC(=O)NN=C1c2ccccc2-c2nc3nonc3nc21,5.93,> 10000 nM,5.84
C[C@H](Nc1cncc(-c2cccc(OC(F)(F)F)c2)n1)c1ccccc1,5.93,> 10000 nM,< 6.58
COC(=O)N(C)C(C)(C)C(C)=NOC(=O)c1ccccc1,< 5.93,> 10000 nM,< 5.79
CCOP(=O)(OCC)C(O)c1ccc(C)cc1 (configuration not stated),< 5.93,> 10000 nM,< 5.90
COc1ccc(C(=O)C(CCC(CNC(C)(C)C)C(=O)c2ccc(OC)cc2)CNC(C)(C)C)cc1 (configuration not stated),5.92,> 10000 nM,5.95
CC(C)n1nnnc1CN1CCN(c2ccccc2F)CC1,< 5.93,> 10000 nM,< 5.83

Structure (SMILES),pEC50 (Plasmodium falciparum [1]),CC50 [2],pEC50 (Plasmodium falciparum [3])
COc1ccc(CCNc2nc(NCCCN(C)C)ncc2C(=O)NCc2ccccc2)cc1OC,< 5.93,> 10000 nM,6.22
O=C1CC(c2cccc([N+](=O)[O-])c2)c2cc3c(cc2N1)OCO3 (configuration not stated),< 4.93,> 100000 nM,< 4.99
COc1cc(/C=C(\C#N)c2nc3ccccc3[nH]2)ccc1OCc1ccccc1,5.92,> 10000 nM,6.14
O=C(Nc1ccc(-c2nc3cc(-c4nc5ccccc5o4)ccc3[nH]2)cc1)c1ccc([N+](=O)[O-])cc1,5.92,> 10000 nM,5.98
CCN(CC)c1ccc(C2N(Cc3ccccc3)CCN2Cc2ccccc2)c(O)c1,5.55,23600 nM,5.63
CC(C)CNC(=O)c1cnc(NCCCN2CCCCC2C)nc1NCC1CCCCC1 (configuration not stated),5.93,> 10000 nM,6.36
COc1ccc(OCC(=O)Nc2c(C)n(C)n(-c3ccccc3)c2=O)cc1,< 5.93,> 10000 nM,< 5.90
COC(F)(C(=O)Nc1c(C)n(C)n(-c2ccccc2)c1=O)C(F)(F)F (configuration not stated),< 5.96,> 9060 nM,5.81
COc1cc(NC(C)CCCN(Cc2ccccc2OC)C(=O)c2ccc(C)c([N+](=O)[O-])c2)c2ncccc2c1 (configuration not stated),6.26,4640 nM,6.06
COc1cc(NC(=O)C(F)(F)F)c(C(=O)c2ccc(C(F)(F)F)cc2)cc1OC,< 5.92,> 10000 nM,5.95
COc1ccc(CCNC(=O)c2cc(S(=O)(=O)N3CCC4(CC3)OCCO4)ccc2F)cc1OC,< 5.94,> 10000 nM,< 5.90
CCOC(=O)c1cnc2ccc(OCC)cc2c1NCC1CCCN1CC (configuration not stated),5.94,> 10000 nM,< 6.13
CCn1c(-c2ccc(O)cc2)nn(CN2CCN(Cc3ccc4c(c3)OCO4)CC2)c1=S,< 5.92,> 10000 nM,< 5.90
CCOc1ccccc1NC(=O)CN1CCN(C(=O)c2ccco2)CC1,4.92,> 100000 nM,5.26
O=C(Nc1cccc(Oc2ccccc2)c1)NC(CN1CCCC1)c1ccccc1 (configuration not stated),5.84,11800 nM,6.15
O=C(C1CCC(Cn2c(=S)[nH]c3ccccc3c2=O)CC1)N1CC=C(c2ccccc2)CC1 (configuration not stated),5.92,> 10000 nM,< 6.02
Cn1c(=O)c2c(ncn2CC(O)CN2CCCC2)n(C)c1=O (configuration not stated),< 5.92,> 10000 nM,< 5.90
CCN(CC)c1ccc(/C=C/C23NC(=O)CCN2c2ccc(C)cc2C3(C)C)cc1 (configuration not stated),5.92,> 10100 nM,5.79
N=C(NN=Cc1cccc([N+](=O)[O-])c1)SC1CC(=O)N(c2cc(Cl)ccc2Cl)C1=O (configuration not stated),< 5.92,> 10000 nM,< 5.90
CC1CCCCN1CCCNc1ncc(C(=O)NCCc2ccccc2)c(NCC2CCCCC2)n1 (configuration not stated),5.92,> 10000 nM,6.22
CCCN[P+](CC(C)C)(NCCC)NCCC,6.40,3340 nM,6.68
COc1ccc(-c2cncc3ccc(C(=O)NCc4ccncc4)nc23)cc1,5.92,> 10000 nM,< 5.87
CC(C)Cc1ccc(/C=C/C(=O)NC2CC2)cc1,< 5.92,> 10000 nM,6.04

Structure (SMILES),pEC50 (Plasmodium falciparum [1]),CC50 [2],pEC50 (Plasmodium falciparum [3])
CCOC(=O)c1c(NC(=O)CSc2nnc(CNC(=O)c3cccc(C)c3)n2-c2cccc(C)c2)sc2c1CCC2,< 5.93,> 10000 nM,< 5.80
COc1ccc(/C=C2\N=C(c3ccc(Cl)cc3)N(c3ccccc3)C2=O)cc1OC,< 5.94,> 10000 nM,< 5.90
Cn1c(=O)c2c(nc(N3CCN(C(=O)Nc4ccc(F)cc4F)CC3)n2C)n(C)c1=O,5.92,> 10000 nM,< 5.90
CCCCCCOc1ccc(NC(=O)c2ccco2)cc1,5.92,> 10000 nM,5.86
O=c1[nH]c2cc(Cl)c(Br)nc2[nH]1,5.93,> 10000 nM,< 5.90
C=CCOC(=O)C1=C(C)N=C2SCCC(=O)N2C1c1ccc(OC(=O)c2ccco2)cc1 (configuration not stated),< 4.92,> 100000 nM,< 4.91
COc1ccccc1-n1c(=O)c2c3c(sc2n2c(C)nnc12)CCC3,< 5.92,> 10000 nM,< 5.90
CC(=O)Nc1sc(C)c(C)c1N=Nc1ccc(S(=O)(=O)O)cc1,< 5.93,> 10000 nM,5.94
CN1C2CCC1/C(=C\c1ccsc1)C(=O)/C2=C\c1ccsc1,< 5.92,> 10000 nM,< 5.89
CN(C)c1ccc(/C=C/c2cccc(/C=C/c3ccc(N(C)C)cc3)[n+]2C)cc1,6.53,2530 nM,6.68
O=C(Nc1ccccc1)Nc1ccc(S(=O)(=O)Nc2ccc(Br)cc2)cc1,5.93,> 10000 nM,6.18
N#Cc1nc(-c2ccccc2)c(-c2ccc(-c3nc(C#N)c(C#N)nc3-c3ccccc3)cc2)nc1C#N,5.94,> 10000 nM,5.79
COC(=O)[C@@H]1C[C@@H](NC(=O)c2ccccc2F)CN1CC(c1ccccc1)c1ccccc1,< 5.93,> 10000 nM,5.97
Clc1ccc2c(c1)c(-c1ccccc1)nc1nnnn12,< 5.93,> 10000 nM,< 5.90
CC1(c2ccccc2)CC(c2ccccc2)=Nc2nonc2N1 (configuration not stated),5.93,> 10000 nM,6.23
Clc1ccc(C2Nc3ccc4ccccc4c3C3C=CCC32)c(Cl)c1 (configuration not stated),< 5.92,> 10000 nM,< 5.90
Clc1cccc(C(Nc2cccnc2)(c2ccccc2)c2ccccc2)c1,5.93,> 10000 nM,6.21
CCN(CC)CCCC(C)Nc1c2ccc(Cl)cc2nc2ccc(OC)nc12 (configuration not stated),6.13,> 6250 nM,6.13
CCOc1ccc2[nH]c(=O)c(CN(Cc3ccccc3OC)C(C)=O)cc2c1,< 5.92,> 10000 nM,< 5.76
COc1cc(CN(C)c2ccc3nc(N)nc(N)c3c2)cc(OC)c1OC,5.92,> 10000 nM,8.14
COc1ccccc1CNc1ncc(C(=O)NCCCN2CCCC2=O)c(NCCc2ccccc2)n1,5.93,> 10000 nM,6.67
CCc1ccc(C(=O)N2CCCn3cccc3C2c2ccc(C(C)(C)C)cc2)cc1 (configuration not stated),5.94,> 10000 nM,< 5.90
COc1cccc(CNc2cc(C(=O)NCCNC(C)=O)cc(S(=O)(=O)N(C)C)c2)c1OC,< 5.92,> 10000 nM,< 6.37
